Values quoted from earlier work as cited in PubChem BioAssay AID1259409 (Chemical Carcinogenesis Research Information System (CCRIS), 2018).

System: rodent chemically induced tumor inhibition, incidence and multiplicity
Assay: CCRIS tumor inhibitor studies
Conditions: Route [Inhibitor]: ORAL

## Cc1c(-c2cnccn2)ssc1=S
Carcinogen: DIETHYLNITROSAMINE, 55-18-5, Dose [Inhibitor]: 0, 600 MG/KG DIET FOR DURATION OF STUDY BEGINNING 1 WK PRIOR TO CARCINOGEN TREATMENT (STUDY DURATION: 25 WK), Species: HAMSTER, Strain/Sex: SYRIAN/MALE, Target Tissue: Type of Lesion: TRACHEA: PAPILLOMA, Dose [Carcinogen]: 17.8 MG/KG BW 2/WK FOR 20 WK, Promoter: NONE USED
  tumour outcome (control, treated, inhibition, significance): 100%, 95%, 5%, not significant
Carcinogen: N-BUTYL-N(4-HYDROXYBUTYL)NITROSAMINE, 3817-11-6, Dose [Inhibitor]: 0, 250 MG/KG DIET FOR 6 MO BEGINNING 1 WK PRIOR TO CARCINOGEN TREATMENT (STUDY DURATION: 6 MO), Species: MOUSE, Strain/Sex: BDF/MALE, Target Tissue: Type of Lesion: URINARY BLADDER: CARCINOMA, Dose [Carcinogen]: 7.5 MG IN 0.1 ML ETHANOL:WATER (20:80) 1/WK FOR 8 WK, Promoter: NONE USED
  tumour outcome (control, treated, inhibition, significance): 35/78 (45%), 23/76 (30%), 33%, p<0.05
Carcinogen: N-BUTYL-N-(4-HYDROXYBUTYL)NITROSAMINE, 3817-11-6, Dose [Inhibitor]: 0, 100 MG/KG DIET FOR 6 MO BEGINNING 1 WK PRIOR TO CARCINOGEN TREATMENT (STUDY DURATION: 6 MO), Species: MOUSE, Strain/Sex: BDF/MALE, Target Tissue: Type of Lesion: URINARY BLADDER: CARCINOMA, Dose [Carcinogen]: 7.5 MG IN 0.1 ML ETHANOL:WATER (20:80) 1 WK FOR 8 WK, Promoter: NONE USED
  tumour outcome (control, treated, inhibition, significance): 27/70 (39%), 27/70 (39%), 0%, not significant
Carcinogen: N-BUTYL-N-(4-HYDROXYBUTYL)NITROSAMINE, 3817-11-6, Dose [Inhibitor]: 0, 200 MG/KG DIET FOR 6 MO BEGINNING 1 WK PRIOR TO CARCINOGEN TREATMENT (STUDY DURATION: 6 MO), Species: MOUSE, Strain/Sex: BDF/MALE, Target Tissue: Type of Lesion: URINARY BLADDER: CARCINOMA, Dose [Carcinogen]: 7.5 MG IN 0.1 ML ETHANOL:WATER (20:80) 1/WK FOR 8 WK, Promoter: NONE USED
  tumour outcome (control, treated, inhibition, significance): 30/73 (41%), 27/71 (38%), 7%, not calculated
Carcinogen: N-BUTYL-N-(4-HYDROXYBUTYL)NITROSAMINE, 3817-11-6, Dose [Inhibitor]: 0, 500 MG/KG DIET FOR 76 D THEN 125 MG/KG DIET FOR DURATION OF STUDY (STUDY DURATION: 6 MO), Species: MOUSE, Strain/Sex: BDF/MALE, Target Tissue: Type of Lesion: URINARY BLADDER: CARCINOMA, Dose [Carcinogen]: 7.5 MG IN 0.1 ML ETHANOL:WATER (20:80) 1/WK FOR 8 WK, Promoter: NONE USED
  tumour outcome (control, treated, inhibition, significance): 35/78 (45%), 23/78 (29%), 36%, p<0.05
Carcinogen: N-METHYL-N'-NITRO-N-NITROSOGUANIDINE, 70-25-7, Dose [Inhibitor]: 0, 0.02% IN DIET FOR 12 WK BEGINNING 1 WK PRIOR TO CARCINOGEN TREATMENT (STUDY DURATION: 80 WK), Species: RAT, Strain/Sex: WISTAR/MALE, Target Tissue: Type of Lesion: GLANDULAR STOMACH: ADENOCARCINOMA, Dose [Carcinogen]: 100 PPM IN DRINKING WATER FOR 10 WK, Promoter: NONE USED
  tumour outcome (control, treated, inhibition, significance): 17/30 (57%), 11/30 (37%), 35%, not calculated
Carcinogen: N-METHYL-N'-NITRO-N-NITROSOGUANIDINE, 70-25-7, Dose [Inhibitor]: 0, 0.04% IN DIET FOR 12 WK BEGINNING 1 WK PRIOR TO CARCINOGEN TREATMENT (STUDY DURATION: 80 WK), Species: RAT, Strain/Sex: WISTAR/MALE, Target Tissue: Type of Lesion: GLANDULAR STOMACH: ADENOCARCINOMA, Dose [Carcinogen]: 100 PPM IN DRINKING WATER FOR 10 WK, Promoter: NONE USED
  tumour outcome (control, treated, inhibition, significance): 17/30 (57%), 5/30 (17%), 70%, p<0.01
Carcinogen: N-METHYL-N'-NITRO-N-NITROSOGUANIDINE, 70-25-7, Dose [Inhibitor]: 0, 0.04% IN DIET FOR 12 WK BEGINNING 1 WK PRIOR TO CARCINOGEN TREATMENT (STUDY DURATION: 81 WK), Species: RAT, Strain/Sex: WISTAR/MALE, Target Tissue: Type of Lesion: GLANDULAR STOMACH: ADENOCARCINOMA, Dose [Carcinogen]: 100 PPM IN DRINKING WATER FOR 10 WK, Promoter: NONE USED
  tumour outcome (control, treated, inhibition, significance): 17/30 (57%), 5/30 (17%), 70%, p<0.01
Carcinogen: N-METHYL-N'-NITRO-NITROSOGUANIDINE, 70-25-7, Dose [Inhibitor]: 0, 0.02% IN DIET FOR 12 WK BEGINNING 1 WK PRIOR TO CARCINOGEN TREATMENT (STUDY DURATION: 81 WK), Species: RAT, Strain/Sex: WISTAR/MALE, Target Tissue: Type of Lesion: GLANDULAR STOMACH: ADENOCARCINOMA, Dose [Carcinogen]: 100 PPM IN DRINKING WATER FOR 10 WK, Promoter: NONE USED
  tumour outcome (control, treated, inhibition, significance): 17/30 (57%), 11/30 (37%), 35%, not significant
Carcinogen: N-NITROSOBIS(2-OXOPROPYL)AMINE, 60599-38-4, Dose [Inhibitor]: 0, 300 MG/KG IN DIET FOR 28 WK BEGINNING 2 WK PRIOR TO CARCINOGEN TREATMENT (STUDY DURATION: 28 WK), Species: HAMSTER, Strain/Sex: SYRIAN/FEMALE, Target Tissue: Type of Lesion: PANCREAS: DUCTAL ADENOCARCINOMA, Dose [Carcinogen]: 15 MG/KG BW 1/WK FOR 12 WK, Promoter: NONE USED
  outcome: 17/19 (89%), 14/16 (88%), 1 %, not significant
Carcinogen: N-NITROSOBIS(2-OXOPROPYL)AMINE, 60599-38-4, Dose [Inhibitor]: 0, 600 MG/KG IN DIET FOR 28 WK BEGINNING 2 WK PRIOR TO CARCINOGEN TREATMENT (STUDY DURATION: 28 WK), Species: HAMSTER, Strain/Sex: SYRIAN/FEMALE, Target Tissue: Type of Lesion: PANCREAS: DUCTAL ADENOCARCINOMA, Dose [Carcinogen]: 15 MG/KG BW 1/WK FOR 12 WK, Promoter: NONE USED
  tumour outcome (control, treated, inhibition, significance): 17/19 (89%), 9/15 (60%), 33%, p<0.05
Carcinogen: NITROSOBIS(2-OXOPROPYL)AMINE [60599-38-4], Dose [Inhibitor]: 200 PPM IN DIET FOR 4 WK BEGINNING 1 WK PRIOR TO FIRST CARCINOGEN DOSE (STUDY DURATION: 52 WK), Species: HAMSTER, Strain/Sex: SYRIAN/FEMALE, Target Tissue: Type of Lesion: GALL BLADDER: ADENOMA, Dose [Carcinogen]: 10 MG/KG BW 1X/WK FOR 3 WK (STUDY DURATION: 52 WK)
  tumour outcome (control, treated, inhibition, significance): 13.3%, 21.7%, -63%, not significant
Carcinogen: NITROSOBIS(2-OXOPROPYL)AMINE [60599-38-4], Dose [Inhibitor]: 200 PPM IN DIET FOR 4 WK BEGINNING 1 WK PRIOR TO FIRST CARCINOGEN DOSE (STUDY DURATION: 52 WK), Species: HAMSTER, Strain/Sex: SYRIAN/FEMALE, Target Tissue: Type of Lesion: KIDNEY: RENAL CELL ADENOMA, Dose [Carcinogen]: 10 MG/KG BW 1X/WK FOR 3 WK (STUDY DURATION: 52 WK)
  tumour outcome (control, treated, inhibition, significance): 3.3%, 3.4%, -3%, not significant
Carcinogen: NITROSOBIS(2-OXOPROPYL)AMINE [60599-38-4], Dose [Inhibitor]: 200 PPM IN DIET FOR 4 WK BEGINNING 1 WK PRIOR TO FIRST CARCINOGEN DOSE (STUDY DURATION: 52 WK), Species: HAMSTER, Strain/Sex: SYRIAN/FEMALE, Target Tissue: Type of Lesion: KIDNEY: RENAL CELL CARCINOMA, Dose [Carcinogen]: 10 MG/KG BW 1X/WK FOR 3 WK (STUDY DURATION: 52 WK)
  tumour outcome (control, treated, inhibition, significance): 6.7%, 10.3%, -54%, not significant
Carcinogen: NITROSOBIS(2-OXOPROPYL)AMINE [60599-38-4], Dose [Inhibitor]: 200 PPM IN DIET FOR 4 WK BEGINNING 1 WK PRIOR TO FIRST CARCINOGEN DOSE (STUDY DURATION: 52 WK), Species: HAMSTER, Strain/Sex: SYRIAN/FEMALE, Target Tissue: Type of Lesion: LIVER: CHOLANGIOCELLULAR ADENOMA, Dose [Carcinogen]: 10 MG/KG BW 1X/WK FOR 3 WK (STUDY DURATION: 52 WK)
  tumour outcome (control, treated, inhibition, significance): 6.7%, 0.0%, 100%, not significant
Carcinogen: NITROSOBIS(2-OXOPROPYL)AMINE [60599-38-4], Dose [Inhibitor]: 200 PPM IN DIET FOR 4 WK BEGINNING 1 WK PRIOR TO FIRST CARCINOGEN DOSE (STUDY DURATION: 52 WK), Species: HAMSTER, Strain/Sex: SYRIAN/FEMALE, Target Tissue: Type of Lesion: LIVER: CHOLANGIOCELLULAR CARCINOMA, Dose [Carcinogen]: 10 MG/KG BW 1X/WK FOR 3 WK (STUDY DURATION: 52 WK)
  outcome: 0.0%, 10.3%, -100%, not significant
